Laboratory results reported in patent US20260262652A1, “INSECT DAMAGE INHIBITOR, METHOD FOR USING RESIN COMPOSITION, CULTIVATION METHOD, POTTING SOIL, AND METHOD FOR IMPROVING SOIL” (ARAKAWA CHEMICAL INDUSTRIES, LTD., priority 2023, published 2026).

Test system: two-spotted spider mites
Assay: Test 2: spraying onto two-spotted spider mites on kidney bean seedlings, count of mites (pest reproduction inhibition effect)
Format: in vivo, Tetranychus urticae
Conditions: ten female adults inoculated on kidney bean seedlings, (A1) as 1% solution, average of pots
Procedure: Ten female adult two-spotted spider mites were inoculated onto ‘Naga-uzura’ kidney bean seedlings (14 days after germination) grown in plastic pots, and an ethanol solution of the component (A1) was further diluted 10-fold with deionized water, and the resulting 1% solution was sprayed onto the spider mites. Two additional pots with similarly grown kidney bean seedlings were prepared. On the 2nd, 4th, 9th, 13th, and 17th days after spraying, the total number of two-spotted spider mites on the adaxial surface, abaxial surface, and true leaves of the kidney beans in each pot was counted, and the average value was calculated. The test was conducted in the same manner for the component (A3)′.

CCO [(A3)′, ethanol]
Number of two-spotted spider mites (Average) Day 2 (Day 2 after spraying): 9
Number of two-spotted spider mites (Average) Day 4 (Day 4 after spraying): 8
Number of two-spotted spider mites (Average) Day 9 (Day 9 after spraying): 287
Number of two-spotted spider mites (Average) Day 13 (Day 13 after spraying): 564
Number of two-spotted spider mites (Average) Day 17 (Day 17 after spraying): 924
